# From patent US20240352145A1, “EFFICACY OF ANTI-TROP-2-SN-38 ANTIBODY DRUG CONJUGATES FOR THERAPY OF TUMORS RELAPSED/REFRACTORY TO CHECKPOINT INHIBITORS” (Immunomedics, Inc., priority 2016, published 2024)
# pIC50: −log10 of the molar value.
# How the values were obtained:
# p21^Waf1/Cip1 and p53 [1] = assay: Signaling events (p21Waf1/Cip1, p53) in BxPC-3; assay type: cell-based, human
# Excerpt: (§3) Our initial studies examined the expression of 2 proteins involved in early signaling events (p21^Waf1/Cip1 and p53) and 1 late apoptotic event [cleavage of poly-ADP-ribose polymerase (PARP)] in vitro (not shown).
# p21^Waf1/Cip1 and p53 [2] = assay: Signaling events (p21Waf1/Cip1, p53) in Calu-3; assay type: cell-based, human
# Excerpt: as §3
# Capan-1 [3] = assay: Cytotoxicity (MTS), Example 6, Capan-1; assay type: cell-based, human; settings: Capan-1, 96 h
# Protocol: (§1) One day prior to adding the ADCs, cells were harvested from tissue culture and plated into 96-well plates. […] Plates were incubated at 37° C. for 96 h. […] Growth inhibition was measured as a percent of growth relative to untreated cells using Microsoft Excel and Prism software (non-linear regression to generate sigmoidal dose response curves which yield IC50-values.
# BxPC-3 [4] = assay: Cytotoxicity (MTS), Example 6, BxPC-3; assay type: cell-based, human; settings: BxPC-3, 96 h
# Protocol: as §1
# NCI-N87 = assay: Cytotoxicity (MTS), Example 6, NCI-N87; assay type: cell-based, human; settings: NCI-N87, 96 h
# Protocol: as §1
# BxPC-3 [5] = assay: Cytotoxicity (MTS), Example 7, BxPC-3; assay type: cell-based, human; settings: BxPC-3, 96 h
# Protocol: as §1, with “ADC,” for “ADCs,”, “plates at 2000 cells per well.” for “plates.”, “IC50-values).” for “IC50-values.”
# MDA-MB-468 [6] = assay: Cytotoxicity (MTS), Example 7, MDA-MB-468; assay type: cell-based, human; settings: MDA-MB-468, 96 h
# Protocol: as §1, with “ADC,” for “ADCs,”, “plates at 2000 cells per well.” for “plates.”, “IC50-values).” for “IC50-values.”
# SK-BR-3 = assay: SN-38 sensitivity (MTS), SK-BR-3; assay type: cell-based, human; settings: SK-BR-3 (HER2+), 96 h
# Protocol: (§2) In vitro cytotoxicity testing—Sensitivity to SN-38 was determined using the 3-(4,5-dimethylthiazol-2-yl)-5-(3-carboxymethoxyphenyl)-2-(4-sulfophenyl)-2H-tetrazolium dye reduction assay (MTS dye reduction assay; Promega, Madison, WI). Briefly, cells were plated into 96-well clear, flat-bottomed plates as described above. SN-38 dissolved in DMSO was diluted with media to a final concentration of 0.004 to 250 nM. […] Growth inhibition was measured as a percent of growth relative to untreated cells. Dose-response curves were generated from the mean of triplicate determinations, and IC50-values were calculated using Prism GraphPad Software.
# MDA-MB-468 [7] = assay: SN-38 sensitivity (MTS), MDA-MB-468; assay type: cell-based, human; settings: MDA-MB-468 (TNBC), 96 h
# Protocol: as §2
# HCC38 = assay: SN-38 sensitivity (MTS), HCC38; assay type: cell-based, human; settings: HCC38 (TNBC), 96 h
# Protocol: as §2
# MCF-7 = assay: SN-38 sensitivity (MTS), MCF-7; assay type: cell-based, human; settings: MCF-7 (ER+), 96 h
# Protocol: as §2
# HCC1806 = assay: SN-38 sensitivity (MTS), HCC1806; assay type: cell-based, human; settings: HCC1806 (TNBC), 96 h
# Protocol: as §2
# MDA-MB-231 = assay: SN-38 sensitivity (MTS), MDA-MB-231; assay type: cell-based, human; settings: MDA-MB-231 (TNBC), 96 h
# Protocol: as §2
# p21^WAF1/Cip1 = assay: Immunoblotting, apoptotic pathway, MDA-MB-468; assay type: cell-based, human; settings: MDA-MB-468, by 48 h
# Protocol: Immunoblotting—Cells (2×10^6) were plated in 6-well plates overnight. […] Parental hRS7 was used as a control for the ADC.
# PARP = assay: Immunoblotting, apoptosis signaling, NCI-N87 and BxPC-3; assay type: cell-based, human; settings: evident at 24 h, increased at 48 h
# Protocol: Immunoblotting—Cells (2×10^6) were plated in 6-well plates overnight. […] Parental hRS7 was used as a control for the ADC. Cells were lysed in buffer containing 10 mM Tris, pH 7.4, 150 mM NaCl, protease inhibitors and phosphatase inhibitors (2 mM […], 10 mM NaF). A total of 20 μg protein was resolved in a 4-20% SDS polyacrylamide gel, transferred onto a nitrocellulose membrane and blocked by 5% non-fat milk in 1×TBS-T (Tris-buffered saline, 0.1% Tween-20) for 1 h at room temperature. Membranes were probed overnight at 4° C. with primary antibodies followed by 1-h incubation with antirabbit secondary antibody (1:2500) at room temperature. Signal detection was done using a chemiluminescence kit (Supersignal West Dura, Thermo Scientific; Rockford, IL) with the membranes visualized on a Kodak Image Station […]. Primary antibodies p21Waf1/Cip1 (Cat. No. 2947), Caspase-3 (Cat. No. 9665), Caspase-7 (Cat. No. 9492), Caspase-9 (Cat. No. 9502), PARP (Cat. No. 9542), 3-actin (Cat. No. 4967), pJNK1/2 (Cat. No. 4668), JNK (Cat. No. 9258), and goat anti-rabbit-HRP secondary antibody (Cat. No. 7074) were obtained from Cell Signal Technology (Danvers, MA).
# PC-3 = assay: In vitro cytotoxicity, PC-3
# Excerpt: (§4) Cell lines, antibodies, and chemotherapeutics—All human cancer cell lines used in this study were purchased from the American Type Culture Collection.
# Calu-3 = assay: In vitro cytotoxicity, Calu-3
# Excerpt: as §4
# BxPC-3 [8] = assay: In vitro cytotoxicity, BxPC-3
# Excerpt: as §4
# Capan-1 [9] = assay: In vitro cytotoxicity, Capan-1
# Excerpt: as §4
# COLO 205 = assay: In vitro cytotoxicity, COLO 205
# Excerpt: as §4
# SK-MES-1 = assay: In vitro cytotoxicity, SK-MES-1
# Excerpt: as §4
structure (smiles),measurement,setting,value
"CCc1c2c(nc3ccc(O)cc13)-c1cc3c(c(=O)n1C2)COC(=O)[C@]3(O)CC [SN-38, 7-ethyl-10-hydroxycamptothecin]",exposure time at which p53 upregulation is evident,p21^Waf1/Cip1 and p53 [1],48 h
same,increase in p21Waf1/Cip1 expression,p21^Waf1/Cip1 and p53 [1],20 fold
same,exposure time at which p53 upregulation is evident,p21^Waf1/Cip1 and p53 [2],48 h
same,pIC50,Capan-1 [3],9.00
same,pIC50,BxPC-3 [4],9.00
same,pIC50,NCI-N87,8.37
same,pIC50,BxPC-3 [5],8.80
same,pIC50,MDA-MB-468 [6],9.10
same,pIC50,SK-BR-3,8.70
same,pIC50,MDA-MB-468 [7],8.70
same,pIC50,HCC38,8.70
same,pIC50,MCF-7,7.48
same,pIC50,HCC1806,9.00
same,pIC50,MDA-MB-231,8.22
same,decrease of p21WAF1/Cip1,p21^WAF1/Cip1,31%
same,PARP cleavage,PARP,mediated PARP cleavage
same,pIC50,PC-3,8.73
same,pIC50,Calu-3,8.14
same,pIC50,BxPC-3 [8],8.84
same,pIC50,Capan-1 [9],8.46
same,pIC50,COLO 205,8.99
same,pIC50,SK-MES-1,8.06
